How the values were obtained:
[1] = tested on: human peripheral mononuclear blood cells (PBMCs); assay: Cytokine release assay in primary human PBMCs; format: cell-based; details: 10 μM, 24 h
Protocol: FIG. 3(A-H). NOD2 agonist TT030 activates cytokine production in vitro and improves immune checkpoint inhibitor treatment of tumor growth in vivo. A-D, Measurements of secreted cytokine levels from human peripheral mononuclear blood cells (PMBCs) treated with the indicated compounds for 24 h without or with lipopolysaccharide (LPS). E, Structures of TT030 and its enantiomer (TT030-ent). F, Activation of NOD1- and NOD2-expressing HEK-293T cells with the indicated compounds. C12-iE-DAP is a lipophilic version of the NOD1 agonist, iE-DAP. G, Growth profiles of B16-F10 subcutaneous tumors in wild-type C57BL/6 mice treated with 100 μg α-PD-L1 and 100 μg of the indicated compounds every other day starting at Day 7. H, Growth profiles of B16-F10 subcutaneous tumors in wild-type or Nod2^−/− C57BL/6 mice treated with 100 μg α-PD-L1 and 100 μg TT030 every other day starting at Day 7. Cytokine secretion assays and NOD activation assays were analyzed using a one-way ANOVA with Dunnett's multiple comparisons test compared to the DMSO control. Longitudinal tumor growth assays were analyzed using linear mixed-effects model analysis on the log transformed data. ns=not significant, *P<0.05, **P<0.01, ***P<0.001, ****P<0.0001.
FIG. 7(A-B). NOD2 agonist TT030 activates cytokine production in vitro. A-B, Measurements of secreted cytokine levels from human peripheral mononuclear blood cells (PMBCs) treated with the indicated compounds for 24 h without or with lipopolysaccharide (LPS). Cytokine secretion assays and NOD activation assays were analyzed using a one-way ANOVA with Dunnett's multiple comparisons test compared to the DMSO control. *P<0.05, **P<0.01.
Cytokine release assay. Human PMBCs were obtained from whole blood donated by healthy individuals via the Scripps Normal Blood Donor Service. Whole blood was diluted 1:1 with phosphate-buffered saline (PBS) containing 2% FBS and then layered onto Lymphoprep (STEMCELL Technologies, 07851) in SepMate-50 isolation tubes (STEMCELL Technologies, 85480). The discontinuous gradient was centrifuged for 10 min at 1,200×g, and mononuclear cells were removed by pouring off. Mononuclear cells were then resuspended in PBS+2% FBS and centrifuged for 3 min at 200×g twice before further use. Washed mononuclear cells were then aliquoted at 5×10^5 cells per well of a 48-well plate with 300 μL RPMI containing 10% FBS (complete RPMI). Cells were then diluted with 100 μL complete RPMI containing 50 μM of the test compound (10 μM final concentration). Then, 100 μL complete RPMI (-LPS) or 100 μL complete RPMI containing […] LPS (+LPS, 10 ng mL^−1 final concentration) was added. Cells were incubated overnight at 37° C. in 5% CO2, and conditioned medium was harvested and centrifuged for 5 min at 500×g to remove residual cells. Samples were used directly for cytokine analysis with the LEGENDPlex Human Inflammatory Panel 1 (BioLegend, 740809) according to the manufacturer's protocol. For analysis, 25 μL of the conditioned medium was used for −LPS samples, and 12.5 μL was used for the +LPS samples. On-bead ELISA readouts were measured using the standard PE and APC detection filter parameters on a ZE5 flow cytometer (Bio-Rad; 405, 488, 561, and 640 lasers) in the Scripps Research Flow Cytometry Core Facility. Raw data files were then imported into the LEGENDPlex Cloud Data Analysis software suite (BioLegend) and analyzed using the manufacturer's pre-set parameters.

[2] = tested on: intratumoral immune cells; assay: Single cell transcriptomic profiling of intratumoral immune cells; format: in vivo, mice; details: tumors treated with anti-PD-L1 and compound
Text: N-arylpyrazole NOD2 agonist enhances intratumoral immune responses in vivo. The anti-tumor mechanism of action of the N-arylpyrazole NOD2 agonist in vivo was then further characterized. Infiltrating leukocytes from tumors treated with anti-PD-L1 and either TT030 or TT030-ent were harvested via cell sorting and subjected to single cell transcriptomic profiling (FIG. 4A and FIG. 8). After assignment of cell clusters using well-defined markers, the overall composition of intratumoral immune cells were examined by comparing the relative proportions of each cell cluster. […] In fact, overall expression of both Ifng and Gzmb were elevated in the TT030 sample compared to the enantiomer control (FIG. 9B), indicating heighted CD8^+ T cell activation and effector function. […] To better characterize changes to downstream signaling caused by TT030, differential gene expression and gene set enrichment analyses were performed.
FIG. 4(A-E). NOD2 agonist TT030 remodels intratumoral immune cell composition and elicits broad inflammatory signaling. A, Uniform manifold approximation and projection (UMAP) reduction of single intratumoral immune cells harvested from α-PD-L1 and TT030- and TT030-ent-treated tumors. B-C, Heatmap and quantification of the relative composition of intratumoral immune cell types divided by clusters. D, Quantification of the number of clusters that were enriched for individual Molecular Signature Database (MSigDB) hallmark gene sets. E, Bubble plot for enrichment of curated REACTOME gene sets involving NF-κB or interleukin 1 across cell clusters. For relative composition, absolute cell counts were analyzed by Pearson's chi-square test for count data with Holm's correction for multiple comparisons; exact P values are given. […] NOD activation assays were analyzed using a one-way ANOVA with Dunnett's multiple comparisons test compared to the DMSO control.
FIG. 9(A-B). […] QQ plots were analyzed using a two-sided Wilcoxon rank-sum test; exact P values are given.

SMILES	IFNγ levels ([1]; without or with LPS)	interleukin-1 beta (IL-1B) in the medium ([1]; without or with LPS)	tumor necrosis factor alpha (TNFα) in the medium ([1]; without or with LPS)	Inflammatory, immune activation and metabolic pathways (IFNα, IFNγ response, NF-κB signaling), gene set enrichment [2]	Amount of T cell cluster expressing Cd8a, Ifng, Gzmb and Mki67 ([2]; vs. TT030-ent)	Overall expression of Ifng and Gzmb ([2]; vs. enantiomer control)	IL-12p70 secretion ([1]; with and without LPS)	IL-18 production ([1]; without or with LPS)	IL-23 production ([1]; without or with LPS)
CC(=O)N[C@H]1C(O)O[C@H](CO)[C@@H](O)[C@@H]1O[C@H](C)C(=O)N[C@@H](C)C(=O)N[C@H](CCC(=O)O)C(N)=O (stereo partly drawn) [MDP, (4R)-4-((2S)-2-((2R)-2-(((3R,4R,5S,6R)-3-acetamido-2,5-dihydroxy-6-(hydroxymethyl)tetrahydro-2H-pyran-4-yl)oxy)propanamido)propanamido)-5-amino-5-oxopentanoic acid, reference compound]	increased	significant increase	significant increase						
CCOC(=O)CC[C@@H](NC(=O)[C@@H](NC(=O)c1c(C)nn(-c2cc[nH]c(=O)c2)c1C)C(C)C)C(=O)OCC [TT030, Diethyl (3,5-dimethyl-1-(2-oxo-1,2-dihydropyridin-4-yl)-1H-pyrazole-4-carbonyl)-L-valyl-D-glutamate]	increased	equivalent concentrations	equivalent concentrations	upregulated	significant increase	elevated	increase	production	production

Source: patent US20260176300A1, “N-ARYLPYRAZOLE NOD2 AGONISTS AS PROMOTERS OF IMMUNE CHECKPOINT INHIBITOR THERAPY” (THE SCRIPPS RESEARCH INSTITUTE, priority 2022, published 2026)
